Data published in ChEMBL document CHEMBL1150275, “Pharmacological and pharmacokinetic characterization of 2-piperazine-alpha-isopropyl benzylamine derivatives as melanocortin-4 receptor antagonists” (Bioorg Med Chem, 2008).

Experiments:
[1] = Cmax in mouse brain at 5 mg/kg, iv and 10 mg/kg, po; assay type: ADME, organism-based
[2] = Drug level in LLC tumor bearing C57BL/6J mouse brain at 20 mg/kg, po twice daily after 24 hrs; assay type: ADME, organism-based; parameters: dose 20 mg/kg, route oral
[3] = Drug level in mouse brain at 10 mg/kg, po after 1 hr; assay type: ADME, organism-based; parameters: dose 10 mg/kg, route oral
[4] = Ratio of drug level in brain to plasma in mouse at 10 mg/kg, po after 4 hrs; assay type: ADME, organism-based; parameters: dose 10 mg/kg, route oral
[5] = Drug level in LLC tumor bearing C57BL/6J mouse plasma at 20 mg/kg, po twice daily after 24 hrs on day 4 of administration measured 14 hrs after last dose; assay type: ADME, organism-based; parameters: dose 20 mg/kg, route oral
[6] = Drug level in LLC tumor bearing C57BL/6J mouse plasma at 20 mg/kg, po twice daily after 12 hrs on day 4 of administration; assay type: ADME, organism-based; parameters: dose 20 mg/kg, route oral
[7] = Drug level in LLC tumor bearing C57BL/6J mouse brain at 20 mg/kg, po twice daily after 2 hrs on day 1 of administration; assay type: ADME, organism-based; parameters: dose 20 mg/kg, route oral
[8] = Drug level in LLC tumor bearing C57BL/6J mouse plasma at 20 mg/kg, po twice daily after 12 hrs on day 1 of administration; assay type: ADME, organism-based; parameters: dose 20 mg/kg, route oral
[9] = Ratio of drug level in brain to plasma in mouse at 5 mg/kg, iv after 4 hrs; assay type: ADME, organism-based; parameters: dose 5 mg/kg, route intravenous
[10] = Drug level in LLC tumor bearing C57BL/6J mouse brain at 20 mg/kg, po twice daily after 24 hrs on day 4 of administration measured 14 hrs after last dose; assay type: ADME, organism-based; parameters: dose 20 mg/kg, route oral
[11] = Ratio of Cmax in brain to plasma in mouse at 5 mg/kg, iv and 10 mg/kg, po; assay type: ADME, organism-based
[12] = Volume of distribution in mouse at 5 mg/kg, iv and 10 mg/kg, po; assay type: ADME, organism-based; settings: in vivo
physchem = settings: buffer, pH 7.4
Brain [13] = assay: Drug level in LLC tumor bearing C57BL/6J mouse brain at 5 mg/kg, po; assay type: ADME, organism-based; parameters: dose 5 mg/kg, route oral; settings: in vivo
[14] = Ratio of drug level in brain to plasma in mouse at 10 mg/kg, po after 1 hr; assay type: ADME, organism-based; parameters: dose 10 mg/kg, route oral; settings: brain and plasma
Brain [15] = assay: AUC in mouse brain at 5 mg/kg, iv and 10 mg/kg, po; assay type: ADME, organism-based; settings: in vivo
Brain [16] = assay: AUC in rat brain at 10 mg/kg, po; assay type: ADME, organism-based; parameters: dose 10 mg/kg, route oral; settings: in vivo
[17] = Drug level in rat brain at 10 mg/kg, po after 6 hrs; assay type: ADME, organism-based; parameters: dose 10 mg/kg, route oral; settings: read-out: Drug uptake
[18] = Ratio of drug level in brain to plasma in mouse at 5 mg/kg, iv after 1 hr; assay type: ADME, organism-based; parameters: dose 5 mg/kg, route intravenous
[19] = Ratio of AUC in brain to plasma in mouse at 5 mg/kg, iv and 10 mg/kg, po; assay type: ADME, organism-based
[20] = Drug level in LLC tumor bearing C57BL/6J mouse brain at 20 mg/kg, po twice daily after 12 hrs on day of administration; assay type: ADME, organism-based; parameters: dose 20 mg/kg, route oral
[21] = Drug level in LLC tumor bearing C57BL/6J mouse plasma at 20 mg/kg, po twice daily after 2 hrs on day 4 of administration; assay type: ADME, organism-based; parameters: dose 20 mg/kg, route oral
[22] = Drug level in mouse brain at 10 mg/kg, po after 4 hrs; assay type: ADME, organism-based; parameters: dose 10 mg/kg, route oral; settings: read-out: Drug uptake
[23] = Tmax in mouse brain at 5 mg/kg, iv and 10 mg/kg, po; assay type: ADME, organism-based
[24] = Drug level in LLC tumor bearing C57BL/6J mouse plasma at 20 mg/kg, po twice daily after 24 hrs; assay type: ADME, organism-based; parameters: dose 20 mg/kg, route oral
[25] = Drug level in LLC tumor bearing C57BL/6J mouse plasma at 20 mg/kg, po twice daily after 2 hrs on day 1 of administration; assay type: ADME, organism-based; parameters: dose 20 mg/kg, route oral
[26] = Drug level in LLC tumor bearing C57BL/6J mouse brain at 20 mg/kg, po twice daily after 12 hrs on day 1 of administration; assay type: ADME, organism-based; parameters: dose 20 mg/kg, route oral
[27] = Drug level in LLC tumor bearing C57BL/6J mouse brain at 20 mg/kg, po twice daily after 2 hrs on day 4 of administration; assay type: ADME, organism-based; parameters: dose 20 mg/kg, route oral
Caco-2 = assay: Apparent permeability across human Caco-2 cells; assay type: ADME, cell-based
[28] = Dissociation constant, pKa of the compound; assay type: physicochemical
[29] = Tmax in monkey at 5 mg/kg, iv and 10 mg/kg, po; assay type: ADME, organism-based, Macaca mulatta; settings: rhesus monkey, in vivo
[30] = Volume of distribution in rat at 5 mg/kg, iv and 10 mg/kg, po; assay type: ADME, organism-based; settings: in vivo
[31] = Cmax in monkey at 5 mg/kg, iv and 10 mg/kg, po; assay type: ADME, organism-based, Macaca mulatta; settings: rhesus monkey, in vivo
[32] = Cmax in rat at 5 mg/kg, iv and 10 mg/kg, po; assay type: ADME, organism-based; settings: in vivo
[33] = Oral bioavailability in mouse at 10 mg/kg; assay type: ADME, organism-based; settings: in vivo
[34] = Ratio of Cmax in brain to plasma in rat at 10 mg/kg, po after 1 hr; assay type: ADME, organism-based; parameters: dose 10 mg/kg, route oral; settings: brain and plasma
[35] = Drug level in rat brain at 10 mg/kg, po after 1 hr; assay type: ADME, organism-based; parameters: dose 10 mg/kg, route oral; settings: read-out: Drug uptake
[36] = AUC in monkey at 10 mg/kg, po; assay type: ADME, organism-based, Macaca mulatta; parameters: dose 10 mg/kg, route oral; settings: rhesus monkey, plasma
[37] = Tmax in rat brain at 10 mg/kg, po; assay type: ADME, organism-based; parameters: dose 10 mg/kg, route oral
[38] = Cmax in rat brain at 10 mg/kg, po; assay type: ADME, organism-based; parameters: dose 10 mg/kg, route oral
[39] = Tmax in rat at 5 mg/kg, iv and 10 mg/kg, po; assay type: ADME, organism-based; settings: in vivo
[40] = Volume of distribution in monkey at 5 mg/kg, iv and 10 mg/kg, po; assay type: ADME, organism-based, Macaca mulatta; settings: rhesus monkey, in vivo
[41] = Tmax in mouse at 5 mg/kg, iv and 10 mg/kg, po; assay type: ADME, organism-based; settings: in vivo
[42] = Ratio of Cmax in brain to plasma in rat at 10 mg/kg, po; assay type: ADME, organism-based; parameters: dose 10 mg/kg, route oral; settings: brain and plasma
[43] = Tmax in dog at 5 mg/kg, iv and 10 mg/kg, po; assay type: ADME, organism-based, Canis lupus familiaris; settings: in vivo
[44] = AUC in rat at 10 mg/kg, po; assay type: ADME, organism-based; parameters: dose 10 mg/kg, route oral; settings: plasma
[45] = Oral bioavailability in rat at 10 mg/kg; assay type: ADME, organism-based; settings: in vivo
[46] = Drug level in rat brain at 10 mg/kg, po after 4 hrs; assay type: ADME, organism-based; parameters: dose 10 mg/kg, route oral; settings: read-out: Drug uptake
[47] = Oral bioavailability in monkey at 10 mg/kg; assay type: ADME, organism-based, Macaca mulatta; settings: rhesus monkey, in vivo
[48] = Drug level in mouse brain at 5 mg/kg, iv after 4 hrs; assay type: ADME, organism-based; parameters: dose 5 mg/kg, route intravenous; settings: read-out: Drug uptake
[49] = Ratio of Cmax in brain to plasma in rat at 10 mg/kg, po after 4 hrs; assay type: ADME, organism-based; parameters: dose 10 mg/kg, route oral; settings: brain and plasma
[50] = Oral bioavailability in dog at 10 mg/kg; assay type: ADME, organism-based, Canis lupus familiaris; settings: in vivo
[51] = AUC in dog at 10 mg/kg, po; assay type: ADME, organism-based, Canis lupus familiaris; parameters: dose 10 mg/kg, route oral; settings: plasma
[52] = AUC in mouse at 10 mg/kg, po; assay type: ADME, organism-based; parameters: dose 10 mg/kg, route oral; settings: plasma
[53] = Ratio of AUC in brain to plasma in rat at 10 mg/kg, po; assay type: ADME, organism-based; parameters: dose 10 mg/kg, route oral; settings: brain and plasma
[54] = Cmax in dog at 5 mg/kg, iv and 10 mg/kg, po; assay type: ADME, organism-based, Canis lupus familiaris; settings: in vivo
[55] = Volume of distribution in dog at 5 mg/kg, iv and 10 mg/kg, po; assay type: ADME, organism-based, Canis lupus familiaris; settings: in vivo
[56] = Drug level in mouse brain at 5 mg/kg, iv after 1 hr; assay type: ADME, organism-based; parameters: dose 5 mg/kg, route intravenous; settings: read-out: Drug uptake
[57] = Cmax in mouse at 5 mg/kg, iv and 10 mg/kg, po; assay type: ADME, organism-based; settings: in vivo

Cc1ccc(N2CCN(C(=O)[C@H](C)Cc3ccc(Cl)cc3)CC2)c([C@@H](NC(=O)CCN(C)C)C(C)C)c1
Cmax [1]: 91 ng/g
concentration at 24 h [2]: 11 ng/g
concentration at 1 h [3]: 19 ng/g
Kp at 4 h [4]: 0.1
concentration at 14 h [5]: 22 ng/mL
concentration at 12 h [6]: 405 ng/mL
concentration at 2 h [7]: 27 ng/g
concentration at 12 h [8]: 430 ng/mL
Kp at 4 h [9]: 0.1
concentration at 14 h [10]: 4.5 ng/g
Kp [11]: 0.1
Vd [12]: 4.1 L/kg
logD (physchem): 3.4
Drug uptake (Brain [13]): 2 ng/mL
Kp at 1 h [14]: 0.1
AUC (Brain [15]): 367 ng·h/g
AUC (Brain [16]): 254 ng·h/g
concentration at 6 h [17]: 41 ng/g
Kp at 1 h [18]: 0.1
Kp [19]: 0.15
concentration at 12 h [20]: 25 ng/g
concentration at 2 h [21]: 460 ng/mL
concentration at 4 h [22]: 18 ng/g
Tmax [23]: 0.3 h
concentration at 24 h [24]: 140 ng/mL
concentration at 2 h [25]: 360 ng/mL
concentration at 12 h [26]: 74 ng/g
concentration at 2 h [27]: 36 ng/g
Papp (Caco-2): 41 ×10⁻⁶ cm/s
pKa [28]: 8.9

CC(C)[C@H](NC(=O)CCN(C)C)c1cccc(F)c1N1CCN(C(=O)[C@H](C)Cc2ccc(Cl)cc2)CC1
Tmax [29]: 6.7 h
Vd [30]: 7.7 L/kg
Cmax [31]: 200 ng/mL
Cmax [32]: 195 ng/mL
bioavailability [33]: 42%
Kp at 1 h [34]: 0.05
concentration at 1 h [35]: 6.3 ng/g
AUC [36]: 2650 ng·h/mL
Tmax [37]: 6 h
Kp at 4 h [9]: 0.8
Cmax [38]: 52 ng/g
Tmax [39]: 6 h
Vd [40]: 5.6 L/kg
Tmax [41]: 0.5 h
Vd [12]: 5.2 L/kg
logD (physchem): 2.4
Kp [42]: 0.27
Tmax [43]: 4 h
AUC [44]: 1290 ng·h/mL
bioavailability [45]: 31%
concentration at 4 h [46]: 38 ng/g
AUC (Brain [16]): 618 ng·h/g
bioavailability [47]: 21%
concentration at 4 h [48]: 175 ng/g
Kp at 4 h [49]: 0.2
bioavailability [50]: 37%
AUC [51]: 3850 ng·h/mL
Kp at 1 h [18]: 0.6
AUC [52]: 2690 ng·h/mL
Kp [53]: 0.48
Cmax [54]: 250 ng/mL
Vd [55]: 8.7 L/kg
concentration at 1 h [56]: 322 ng/g
Cmax [57]: 308 ng/mL
Papp (Caco-2): 10 ×10⁻⁶ cm/s
